Calls of active or inactive are those of the source.
How the values were obtained:
[1] = target: Induced myeloid leukemia cell differentiation protein Mcl-1 (Homo sapiens, UniProt Q07820); assay type: functional
Streptococcus = assay: GAS UMAA2166 growth inhibition – luminescence, BacTiterGlo, counter-screen for streptokinase expression inhibitor project, dose response (AID 1915); assay type: functional, organism-based;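 also: potency for reduction of bacterial viability or growth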
[2] = test system: Streptococcus sp. 'group A'; assay: Streptococcus pyogenes SK(-)GAS viability under kanamycin – luminescence, BacTiterGlo, confirmation, counter-screen for streptokinase expression inhibitor project, dose response (AID 1900); assay type: functional, organism-based
[3] = HGIII-sPLA2 enzyme inhibition potency – biochemical, QFRET, IC50, dose response (AID 743457);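 also: green fluorescence rise as the enzyme cleaves BODIPY PC-A2 in liposomes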
[4] = viability loss in HepG2 hepatoma cells – cell-based, ATP luminescence, cherry-pick, activator set 2, cytotoxicity control, dose response (AID 1053143); assay type: functional
[5] = general cell-killing toxicity readout – plate reader, dry powder samples, cytotoxicity control for PAX8 inhibitor project, dose response (AID 743021); assay type: functional, cell-based
Paired box protein Pax-8 = Paired box protein Pax-8 (Homo sapiens, UniProt Q06710); assay: PAX8 transcriptional activity inhibition in RMG-I – RMG-I cells, luciferase, cherry-pick, dose response (AID 687027); assay type: functional, cell-based;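 also: luciferase reporter driven by Pax8 target thyroperoxidase promoter measured by SteadyGlo luminescence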
Paired box protein Pax-8, sequence (Q06710 whole entry): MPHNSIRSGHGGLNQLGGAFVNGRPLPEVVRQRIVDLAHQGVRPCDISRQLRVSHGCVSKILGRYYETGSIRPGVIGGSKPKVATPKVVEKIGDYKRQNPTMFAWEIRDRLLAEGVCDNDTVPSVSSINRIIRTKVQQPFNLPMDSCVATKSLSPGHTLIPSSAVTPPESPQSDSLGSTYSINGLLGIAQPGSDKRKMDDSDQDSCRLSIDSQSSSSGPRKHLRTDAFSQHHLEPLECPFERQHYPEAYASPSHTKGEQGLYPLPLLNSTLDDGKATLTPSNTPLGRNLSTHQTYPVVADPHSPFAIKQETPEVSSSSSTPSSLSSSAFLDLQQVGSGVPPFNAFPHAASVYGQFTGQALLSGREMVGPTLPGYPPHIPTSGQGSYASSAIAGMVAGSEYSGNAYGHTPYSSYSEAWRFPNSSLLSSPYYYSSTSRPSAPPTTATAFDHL

[6] = target: T1, High affinity choline transporter 1 (Homo sapiens, UniProt Q9GZV3); assay: inhibition of SLC5A7-mediated choline transport – cell-based, HEK-293 hCHT, [3H]-choline uptake, dose response (AID 652177); assay type: functional
T1 sequence (Q9GZV3 whole entry): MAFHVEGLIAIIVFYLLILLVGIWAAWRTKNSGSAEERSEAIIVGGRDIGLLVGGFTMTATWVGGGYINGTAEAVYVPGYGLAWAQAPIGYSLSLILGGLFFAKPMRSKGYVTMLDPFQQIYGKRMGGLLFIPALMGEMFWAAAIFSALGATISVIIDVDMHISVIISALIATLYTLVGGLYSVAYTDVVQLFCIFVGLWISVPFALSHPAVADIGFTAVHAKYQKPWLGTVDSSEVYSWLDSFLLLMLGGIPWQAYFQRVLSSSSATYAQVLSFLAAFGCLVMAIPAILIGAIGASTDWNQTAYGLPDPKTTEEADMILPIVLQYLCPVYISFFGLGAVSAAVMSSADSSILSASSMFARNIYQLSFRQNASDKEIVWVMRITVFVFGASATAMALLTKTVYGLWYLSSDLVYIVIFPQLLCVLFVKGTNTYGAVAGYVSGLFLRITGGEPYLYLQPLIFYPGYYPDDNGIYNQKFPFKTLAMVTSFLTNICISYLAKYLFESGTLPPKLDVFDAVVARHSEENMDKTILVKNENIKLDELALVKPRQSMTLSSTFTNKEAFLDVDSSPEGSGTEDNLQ

[7] = growth inhibition of yeast DHODH-expressing 3D7 parasites – SYBR Green, dry powder samples, dose response (AID 1159570); assay type: functional, cell-based;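 also: parasite growth measured after 72 hours of compound exposure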
[8] = viability loss in A549 lung cancer cells – cell-based, cherry-picks, […], cytotoxicity control, dose response (AID 1053119); assay type: functional
[9] = Dd2 malaria parasite growth inhibition potency – SYBR Green, dry powder samples, dose response (AID 1159566); assay type: functional, cell-based;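 also: potency for growth inhibition with lower SYBR green DNA signal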
[10] = toxicity to human HepG2 hepatoma cells – cell-based, plate reader, dry powder samples, cytotoxicity control, dose response (AID 1159569); assay type: functional;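 also: inhibitor potency with signal falling toward the positive control level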
[11] = viability loss in HepG2 hepatoma cells – cell-based, cherry-picks, set 5, cytotoxicity control, dose response (AID 1053118); assay type: functional
[12] = P. falciparum Dd2 growth inhibitors, dose response, SYBR Green, cherry-picked samples (AID 1159567); assay type: functional, cell-based
[13] = growth inhibition of PfATP4-mutant resistant parasites – NITD609-resistant line, SYBR Green, dry powder, dose response (AID 1159571); assay type: functional, cell-based;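 also: parasites synchronized at ring stage by sorbitol before testing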
[14] = viability loss in HEK293 kidney cells – cell-based, cherry-picks, set 5, cytotoxicity control, dose response (AID 1053117); assay type: functional
BHK-21 = assay: viability loss in BHK-21 cells – cell-based, plate reader, cherry-pick samples, cytotoxicity control, dose response (AID 687030); assay type: functional; conditions: Mesocricetus auratus
A549 = assay: viability loss in A549 cells – cell-based, plate reader, cherry-pick samples, cytotoxicity control, dose response (AID 687028); assay type: functional; conditions: Homo sapiens
[15] = Luminescence Cell-Based Dose Retest to Confirm Inhibitors of Cancer Stem Cells. [Related pubchem assays (depositor defined):AID2717, AID2721]; assay type: functional; conditions: Homo sapiens
Vero = assay: viability loss in Vero cells – cell-based, plate reader, cherry-pick samples, cytotoxicity control, dose response (AID 687020); assay type: functional; conditions: Chlorocebus sabaeus
[16] = blockers of HIV-1 envelope-mediated cell-cell fusion – cherry-pick, dose response (AID 652057); assay type: functional, cell-based
[17] = NIH3T3 cell viability loss – ATP luminescence, mouse fibroblasts, counter-screen, dose response (AID 2010); assay type: functional, cell-based;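 also: cells exposed to compound for about 90 hours before reading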
[18] = viability loss in CEM21 cells – cell-based, CellTiter-Glo luminescence, cherry-picked, cytotoxicity control for viral fusion inhibitor project, dose response (AID 652042); assay type: functional;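 also: potency for signal decrease meaning cytotoxicity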
[19] = target: T2, Calpain-2 catalytic subunit (Sus scrofa, UniProt P43367); assay: m-calpain protease blockers, concentration series – biochemical, fluorogenic peptide substrate, dose response (AID 1420); assay type: functional
T2 sequence (P43367 whole entry): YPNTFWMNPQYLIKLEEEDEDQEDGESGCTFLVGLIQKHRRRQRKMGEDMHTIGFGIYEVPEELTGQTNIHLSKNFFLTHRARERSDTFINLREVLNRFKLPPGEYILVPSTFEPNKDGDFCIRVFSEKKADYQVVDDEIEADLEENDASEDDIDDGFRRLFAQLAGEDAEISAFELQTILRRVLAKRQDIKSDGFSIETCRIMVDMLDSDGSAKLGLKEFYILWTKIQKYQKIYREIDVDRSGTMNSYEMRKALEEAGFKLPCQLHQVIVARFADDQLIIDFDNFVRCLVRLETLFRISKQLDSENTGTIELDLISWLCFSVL

[20] = HIV-1 AD8 envelope cell-cell fusion blockers – cherry-pick, dose response (AID 652062); assay type: functional, cell-based;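 also: luciferase signal from cell-cell fusion driven by HIV-1 clade B AD8 Env; potency is for inhibitors of fusion seen as a drop in luminescence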
cells [21] = assay type: functional, cell-based; conditions: HEK-CNG
[22] = blockers of HIV-1 ZM109 envelope-driven cell-cell fusion – HeLa effector, CEM target cells, luciferase, cherry-pick, dose response (AID 652058); assay type: functional, cell-based;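 also: luciferase signal from HIV-1 Env mediated cell-cell fusion of effector and target cells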
[23] = Trypanosoma cruzi growth suppression in host cells – NIH3T3 host cells, beta-gal luminescence, confirmation (AID 2044); assay type: functional, cell-based;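 also: intracellular parasites grown in NIH/3T3 mouse fibroblasts as host cells; luminescent beta-galactosidase reporter signal from transgenic T. cruzi replicating inside host cells; inhibitors lower the luminescence signal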
Galanin receptor type 3 = target: T3, Galanin receptor type 3 (Homo sapiens, UniProt O60755); assay: Fluorescence-based cell-based primary high throughput dose response assay to identify antagonists of the Galanin Receptor 3 (GalR3).; assay type: functional
T3 sequence (O60755 whole entry): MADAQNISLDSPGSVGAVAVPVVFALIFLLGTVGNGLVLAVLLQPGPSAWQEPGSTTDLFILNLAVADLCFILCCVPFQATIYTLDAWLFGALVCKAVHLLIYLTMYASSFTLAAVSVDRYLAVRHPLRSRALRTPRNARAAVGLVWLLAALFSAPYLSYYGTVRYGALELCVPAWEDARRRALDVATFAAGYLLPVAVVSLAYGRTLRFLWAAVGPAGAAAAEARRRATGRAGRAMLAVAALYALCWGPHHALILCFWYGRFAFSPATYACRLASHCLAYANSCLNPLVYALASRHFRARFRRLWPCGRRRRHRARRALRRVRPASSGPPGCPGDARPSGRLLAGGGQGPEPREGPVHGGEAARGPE

cells [24] = assay: cells
[25] = NIH-3T3 fibroblast cytotoxicity, dose response, cytotoxicity control, cell-based, fluorescence, Alamar Blue, secondary assay (AID 2327); assay type: functional;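 also: NIH-3T3 mouse fibroblasts cultured with fluconazole at 8 µg/mL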
[26] = fluconazole-exposed Candida albicans growth modulators – fluorescence, retest, confirmation (AID 2467); assay type: functional, cell-based
[27] = Counterscreen for […] of the human trace amine associated receptor 1 (TAAR1): Fluorescence-based cell-based high throughput dose response assay to identify nonselective Ga16 agonists.; assay type: functional
[28] = target: T4, Trace amine-associated receptor 1 (Homo sapiens, UniProt Q96RJ0); assay: Counterscreen for antagonists of the human trace amine associated receptor 1 (hTAAR1): Fluorescence-based cell-based high throughput dose response assay to identify TAAR1 Agonists.; assay type: functional
T4 sequence (Q96RJ0 whole entry): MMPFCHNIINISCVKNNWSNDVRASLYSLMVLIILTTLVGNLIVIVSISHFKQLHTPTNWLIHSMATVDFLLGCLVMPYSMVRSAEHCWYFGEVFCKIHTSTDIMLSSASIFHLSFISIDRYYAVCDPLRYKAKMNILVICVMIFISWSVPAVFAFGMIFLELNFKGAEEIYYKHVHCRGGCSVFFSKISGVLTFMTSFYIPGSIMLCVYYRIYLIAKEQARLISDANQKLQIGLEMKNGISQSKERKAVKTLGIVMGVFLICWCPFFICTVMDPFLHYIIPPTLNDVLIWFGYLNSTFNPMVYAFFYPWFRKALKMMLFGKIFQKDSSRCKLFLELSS

[29] = target: T4, Trace amine-associated receptor 1; assay: Fluorescence-based cell-based high throughput dose response assay to identify antagonists of the human trace amine associated receptor 1 (TAAR1).; assay type: functional
[30] = Counterscreen for antagonists of the human trace amine associated receptor 1 (hTAAR1): Fluorescence-based cell-based high throughput dose response assay to identify nonselective Ga16 antagonists.; assay type: functional
[31] = target: NAD-dependent protein deacylase sirtuin-5, mitochondrial (Homo sapiens, UniProt Q9NXA8); assay: sirtuin-5 deacylation blockers, concentration series – biochemical, fluorescence imaging, cherry-pick, set 5, dose response (AID 720591);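 also: desuccinylation of succinyl peptide AMC substrate read as fluorescence after trypsin release; potency of inhibitors that lower fluorescence and may act on trypsin instead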
NAD-dependent protein deacylase sirtuin-5, mitochondrial, sequence (Q9NXA8 whole entry): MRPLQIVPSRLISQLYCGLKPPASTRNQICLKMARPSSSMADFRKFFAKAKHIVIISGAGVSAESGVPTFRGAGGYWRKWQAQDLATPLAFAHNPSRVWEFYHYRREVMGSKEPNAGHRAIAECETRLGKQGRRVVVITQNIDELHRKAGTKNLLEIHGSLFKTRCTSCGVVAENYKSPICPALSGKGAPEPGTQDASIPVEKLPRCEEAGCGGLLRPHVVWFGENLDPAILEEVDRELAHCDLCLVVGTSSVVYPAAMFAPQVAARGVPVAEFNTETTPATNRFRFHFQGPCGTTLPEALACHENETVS

[32] = viability loss in A549 lung cancer cells – cell-based, CellTiter-Glo luminescence, dry powder, set 3, cytotoxicity control, dose response (AID 743146); assay type: functional
[33] = HEK293T viability loss – cell-based, ATP luminescence, dry powder, Set6, cytotoxicity control, dose response (AID 743142); assay type: functional; conditions: HEK293
[34] = target: Potassium channel subfamily K member 3 (Rattus norvegicus, UniProt O54912); assay: SAR analysis for the identification of selective inhibitors of the two-pore domain potassium channel TASK1(KCNK3):Automated Electrophysiology.; assay type: functional
Potassium channel subfamily K member 3, sequence (O54912 whole entry, the tested form may be a part): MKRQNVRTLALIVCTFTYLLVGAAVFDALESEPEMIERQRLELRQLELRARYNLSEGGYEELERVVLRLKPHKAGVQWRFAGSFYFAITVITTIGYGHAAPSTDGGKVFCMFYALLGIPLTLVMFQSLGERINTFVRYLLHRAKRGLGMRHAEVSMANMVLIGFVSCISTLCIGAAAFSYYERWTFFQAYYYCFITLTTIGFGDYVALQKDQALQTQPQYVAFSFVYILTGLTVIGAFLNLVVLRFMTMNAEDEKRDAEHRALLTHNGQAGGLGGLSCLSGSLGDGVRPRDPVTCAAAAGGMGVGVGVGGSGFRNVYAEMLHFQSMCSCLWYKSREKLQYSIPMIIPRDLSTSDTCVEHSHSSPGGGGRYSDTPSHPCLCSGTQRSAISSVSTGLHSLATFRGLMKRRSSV

[35] = target: Potassium channel subfamily K member 9 (Homo sapiens, UniProt Q9NPC2); assay: KCNK9 flux blockade, concentration-response – cell-based, FluxOR thallium flux, selectivity assay for TASK1 inhibitor project, SAR follow-up (AID 652211); assay type: functional;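 also: potency is for inhibitors of the channel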
Potassium channel subfamily K member 9, sequence (Q9NPC2 whole entry): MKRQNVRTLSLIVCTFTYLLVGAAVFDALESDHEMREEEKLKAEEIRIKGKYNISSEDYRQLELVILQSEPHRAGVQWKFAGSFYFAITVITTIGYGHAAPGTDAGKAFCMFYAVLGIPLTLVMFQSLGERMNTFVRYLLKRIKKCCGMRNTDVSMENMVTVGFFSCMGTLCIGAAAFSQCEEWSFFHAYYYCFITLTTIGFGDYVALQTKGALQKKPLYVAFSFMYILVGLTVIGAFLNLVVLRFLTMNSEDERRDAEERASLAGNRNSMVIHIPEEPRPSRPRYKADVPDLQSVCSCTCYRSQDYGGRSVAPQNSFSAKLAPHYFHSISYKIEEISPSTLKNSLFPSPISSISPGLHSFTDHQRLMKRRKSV

Induced myeloid leukemia cell differentiation protein Mcl-1, sequence (Q07820 whole entry): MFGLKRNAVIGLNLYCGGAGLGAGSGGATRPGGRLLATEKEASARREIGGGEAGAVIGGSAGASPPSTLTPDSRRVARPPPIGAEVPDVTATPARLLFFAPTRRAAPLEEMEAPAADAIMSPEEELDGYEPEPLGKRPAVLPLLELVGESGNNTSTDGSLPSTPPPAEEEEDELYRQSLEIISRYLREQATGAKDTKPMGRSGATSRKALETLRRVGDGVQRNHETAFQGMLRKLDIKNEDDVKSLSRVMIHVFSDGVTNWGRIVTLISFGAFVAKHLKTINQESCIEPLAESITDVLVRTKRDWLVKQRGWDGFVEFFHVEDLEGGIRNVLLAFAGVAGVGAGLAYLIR

Cc1cccc(C(=O)NC(=S)NNC(=O)c2ccc(Cl)cc2)c1
IC50 [1]: 25.8 µM (not active) | EC50 (Streptococcus): 1.09 µM (active) | EC50 [2]: 0.362 µM (active) | IC50 [3]: 21.9 µM (inactive)

O=C(Nc1ccc(F)cc1)c1ccc2nsnc2c1
AC50 [4]: > 52 µM (inactive)

COc1ccc(S(=O)(=O)Nc2ccc3c(c2)C(=O)N([C@@H](C)CO)C[C@@H](C)[C@H](CN(C)Cc2ccc(C(F)(F)F)cc2)OCCCC[C@H](C)O3)cc1
AC50 [5]: 45.4 µM (active) | AC50 (Paired box protein Pax-8): 10.8 µM (active)

COc1ccc(C(=O)NC(C)Cc2ccccn2)cc1OC1CCN(C(C)C)CC1 (configuration not stated)
IC50 [6]: 4.6 µM (active)

CO[C@H]1CN(C)C(=O)c2cc(NC(=O)Nc3ccc(C(F)(F)F)cc3)ccc2OC[C@H](C)NC[C@H]1C
AC50 [7]: 1.37 µM (active) | AC50 [8]: > 52 µM (inactive) | AC50 [9]: 1.56 µM (active) | AC50 [10]: 19.2 µM (active) | AC50 [11]: > 52 µM (inactive) | AC50 [12]: 2.49 µM (active) | AC50 [13]: 2.76 µM (active) | AC50 [14]: > 52 µM (inactive)

CC1CCCN(CCCOc2ccc(Br)cc2Cl)C1 (configuration not stated)
AC50 (BHK-21): 38.8 µM (active) | AC50 (A549): 27.2 µM (active) | AC50 [15]: 8.98 µM (active) | AC50 (Vero): 25.2 µM (active)

CCCCCCCn1c2c(c(=N)c3c1CCC3)CCCC2
AC50 [16]: 3.53 µM (active) | EC50 [17]: > 60 µM (not active) | AC50 [18]: 6.62 µM (active) | IC50 [19]: 16.7 µM (not active) | AC50 [20]: 2.6 µM (active) | EC50 (cells [21]): 27.7 µM (inactive) | AC50 [22]: 3.24 µM (active) | EC50 [23]: < 0.1 µM (active) | IC50 (Galanin receptor type 3): > 1.11 µM (active) | EC50 (cells [24]): 0.006 µM (active) | AC50 (Paired box protein Pax-8): 0.677 µM (active) | EC50 [25]: > 160 µM (inactive) | EC50 [26]: 2.79 µM (active)

NC(=O)COc1cccc(/C=N/NC(=O)c2ccc(-n3cccc3)cc2)c1
EC50 [27]: > 29.9 µM (inactive) | EC50 [28]: > 29.9 µM (inactive) | IC50 [29]: > 1.11 µM (active) | IC50 [30]: > 29.9 µM (inactive)

Cc1noc(C)c1NC(=O)N(C)C[C@@H]1Oc2cc(Br)ccc2S(=O)(=O)N([C@@H](C)CO)C[C@H]1C
AC50 [31]: > 30 µM (inactive)

O=C(CCNC(=O)c1ccc(OC(F)(F)F)cc1)N[C@@H]1CCCc2ccccc21
AC50 [32]: 26 µM (active) | AC50 [33]: 6.21 µM (active)

CCOc1ccccc1C(=O)Nc1cccc(NC(=O)c2ccccc2C(F)(F)F)c1
IC50 [34]: 0.01 µM (active) | IC50 [35]: 1.04 µM (active)
